Literature values in article PMC12591484 (PLOS One, 2025).

Tested on: α1β3γ2L GABAA receptors, substituted cysteine at β3M227 (β3– M1)
Set-up: key: +: SCAMP is Substituted Cysteine Modification and Protection and is positive when adding anesthetic to cysteine modifier significantly reduces persistent post-exposure effects due to covalent modification; -: Negative results are indicated by “–“ symbols
Details: previously reported; cited from earlier work

Q: With `C=CCC1(c2cccc(C3(C(F)(F)F)N=N3)c2)C(=O)NC(=O)N(C)C1=O` (stereo not shown) [R-mTFD-MPAB, R-5-allyl-1-methyl-5-(m-trifluoromethyl-diazirynylphenyl) barbituric acid] as the compound, how does the “SCAMP result, β3– (M1) M227” value read?
A: +^[9]
